Measurements: patent publication US20230241243A1, “CARRIER PARTICLE-DRUG CONJUGATES, SELF-IMMOLATIVE LINKERS, AND USES THEREOF” (priority 2020, published 2023)
Structures can show the parent of a compound that is named as a salt.

Test system: Human KB cells
Assay: Cell viability assay of payloads (CellTiter-Glo 2.0)
Format: cell-based
Details: 168 h; Human KB cells, 7 days treatment, 0-1,000 nM; read-out: IC50 values (diluted in RPMI medium)
Procedure: Method: Human KB cells (ATCC® CCL-17™) were cultured in folic acid free rpmi-1640 medium (ThermoFisher, GIBCO) for at least 7 days before the study. The cells were seeded in opaque 96-well plates and allowed to attach overnight (cell density was carefully controlled to be 3,000 cells per well at the time of assay). After that, cells were treated with drug analogs (suspended in the same RPMI-1640 medium) at a concentration of zero to 1,000 nM. After 7 days, cell viability was assessed using the CellTiter-Glo® 2.0 assay (Promega) according to the manufacturer's instructions. The percent of viable cells at each concentration was calculated by normalizing the luminescence values to the untreated control. The half-maximal inhibitory concentration (IC50) of the payloads were plotted and fitted by using the Prism 8 software (GraphPad). Table 2 provides the IC50 of the payloads of the present disclosure (‘+’ indicates 1-9.9 nm; ‘++’ indicates 10-100 nm).

SMILES	IC50 [nM]
CCc1c2c(nc3ccc(Oc4nc(Cl)nc(NCCSSCCN)n4)cc13)-c1cc3c(c(=O)n1C2)COC(=O)[C@]3(O)CC [Example 463, (S)-9-((4-((2-((2-aminoethyl)disulfaneyl)ethyl)amino)-6-chloro-1,3,5-triazin-2-yl)oxy)-4,11-diethyl-4-hydroxy-1,12-dihydro-14H-pyrano[3′,4′:6,7]indolizino[1,2-b]quinoline-3,14(4H)-dione]	10 to 100

Same assay, conditions: Homo sapiens, KB, 168 h, read-out: IC50 values (diluted in RPMI medium)

SMILES	IC50 [nM]
CCc1c2c(nc3ccc(OCCCN)cc13)-c1cc3c(c(=O)n1C2)COC(=O)[C@]3(O)CC [Example 105]	1 to 9.9
CC[C@@]1(O)C(=O)OCc2c1cc1n(c2=O)Cc2c-1nc1cc(F)c(C)c3c1c2[C@@H](Nc1nc(Cl)nc(NCCSSC(C)(C)CN)n1)CC3 [Example 377, (1S,9S)-1-((4-((2-((1-amino-2-methylpropan-2-yl)disulfaneyl)ethyl)amino)-6-chloro-1,3,5-triazin-2-yl)amino)-9-ethyl-5-fluoro-9-hydroxy-4-methyl-1,2,3,9,12,15-hexahydro-10H,13H-benzo[de]pyrano[3′,4′:6,7]indolizino[1,2-b]quinoline-10,13-dione 2,2,2-trifluoroacetate]	10 to 100
CC[C@@]1(O)C(=O)OCc2c1cc1n(c2=O)Cc2c-1nc1cc(F)c(C)c3c1c2[C@@H](NC(=O)CS)CC3 [Example 452, N-((1S,9S)-9-ethyl-5-fluoro-9-hydroxy-4-methyl-10,13-dioxo-2,3,9,10,13,15-hexahydro-1H,12H-benzo[de]pyrano[3′,4′:6,7]indolizino[1,2-b]quinolin-1-yl)-2-mercaptoacetamide]	10 to 100
CC[C@]1(O)C(=O)OCc2c1cc1n(c2=O)Cc2c-1nc1cc(F)c(C)c3c1c2[C@H](NC(=O)C(C)(C)C(=O)NN)CC3 [Example 410, N-((1R,9R)-9-ethyl-5-fluoro-9-hydroxy-4-methyl-10,13-dioxo-2,3,9,10,13,15-hexahydro-1H,12H-benzo[de]pyrano[3′,4′:6,7]indolizino[1,2-b]quinolin-1-yl)-3-hydrazineyl-2,2-dimethyl-3-oxopropanamide]	10 to 100
CCc1c2c(nc3ccc(OCC(=O)NN)cc13)-c1cc3c(c(=O)n1C2)COC(=O)[C@]3(O)CC [Example 385, (S)-2-((4,11-diethyl-4-hydroxy-3,14-dioxo-3,4,12,14-tetrahydro-1H-pyrano[3′,4′:6,7]indolizino[1,2-b]quinolin-9-yl)oxy)acetohydrazide]	10 to 100
CCc1c2c(nc3ccc(OCCCSC(C)=O)cc13)-c1cc3c(c(=O)n1C2)COC(=O)[C@]3(O)CC [Example 327]	10 to 100
CCc1c2c(nc3ccc(OCCCSSC(C)(C)CN)cc13)-c1cc3c(c(=O)n1C2)COC(=O)[C@]3(O)CC [Example 331]	10 to 100
CC[C@@]1(O)C(=O)OCc2c1cc1n(c2=O)Cc2c-1nc1cc(F)c(C)c3c1c2[C@@H](NC(=O)CSSC(C)(C)CN)CC3 [Example 454, 2-((1-amino-2-methylpropan-2-yl)disulfaneyl)-N-((1S,9S)-9-ethyl-5-fluoro-9-hydroxy-4-methyl-10,13-dioxo-2,3,9,10,13,15-hexahydro-1H,12H-benzo[de]pyrano[3′,4′:6,7]indolizino[1,2-b]quinolin-1-yl)acetamide 2,2,2-trifluoroacetic acid salt]	10 to 100
CC[C@@]1(O)C(=O)OCc2c1cc1n(c2=O)Cc2c-1nc1cc(F)c(C)c3c1c2[C@@H](NC(=O)C(O)c1ccc(N)cc1)CC3 (stereo partly drawn) [Example 458, 2-(4-aminophenyl)-N-((1S,9S)-9-ethyl-5-fluoro-9-hydroxy-4-methyl-10,13-dioxo-2,3,9,10,13,15-hexahydro-1H,12H-benzo[de]pyrano[3′,4′:6,7]indolizino[1,2-b]quinolin-1-yl)-2-hydroxyacetamide]	1 to 9.9
CCc1c2c(nc3ccc(OC(C)(C)C(=O)NN)cc13)-c1cc3c(c(=O)n1C2)COC(=O)[C@]3(O)CC [Example 422, (S)-2-((4,11-diethyl-4-hydroxy-3,14-dioxo-3,4,12,14-tetrahydro-1H-pyrano[3′,4′:6,7]indolizino[1,2-b]quinolin-9-yl)oxy)-2-methylpropanehydrazide]	10 to 100

Test system: not listed separately
Assay: Drug-release assay of nanoparticle-conjugated linker-payloads under cleavage conditions (Cat-B, redox-responsive or pH-sensitive cleaving study), RP-HPLC
Format: in vitro ADME
Details: linker-payload conjugated to DBCO-functionalized silica nanoparticle, 37° C., 24 hours
How it was run: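 Azide linker-drugs were click-conjugated to DBCO-functionalized ultrasmall silica nanoparticles and incubated under cleavage conditions, e.g., Cat-B in 25 mM MES, 5 mM DTT, pH 5.0. Released versus non-released drug was quantified by C18 RP-HPLC peak area. Gradients were 0.01% TFA water/acetonitrile for protease/redox linkers and water/acetonitrile for pH-sensitive linkers.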

SMILES	% of Payload Release in 24 Hours Under Cleavage Conditions
CC[C@@]1(O)C(=O)OCc2c1cc1n(c2=O)Cc2c-1nc1cc(F)c(C)c3c1c2[C@@H](NC(=O)OCc1c(F)cc(NC(=O)[C@H](CCCNC(N)=O)NC(=O)[C@@H](NC(=O)CCOCCOCCOCCOCCOCCOCCOCCOCCOCCN=[N+]=[N-])C(C)C)cc1F)CC3 (single isomer, unassigned) [Example 27, 4-((32s,35s)-1-azido-32-isopropyl-30,33-dioxo-35-(3-ureidopropyl)-3,6,9,12,15,18,21,24,27-nonaoxa-31,34-diazahexatriacontan-36-amido)-2,6-difluorobenzyl ((1s,9s)-9-ethyl-5-fluoro-9-hydroxy-4-methyl-10,13-dioxo-2,3,9,10,13,15-hexahydro-1H,12H-benzo[de]pyrano[3′,4′:6,7]indolizino[1,2-b]quinolin-1-yl)carbamate]	++++ (‘++++’ indicates 76-100% release)
CCc1c2c(nc3ccc(OCCCNC(=O)OCc4ccc(NC(=O)[C@H](CCCCN)NC(=O)[C@H](Cc5ccccc5)NC(=O)CCOCCOCCOCCOCCOCCOCCOCCOCCOCCN=[N+]=[N-])cc4)cc13)-c1cc3c(c(=O)n1C2)COC(=O)[C@]3(O)CC [Example 28, 4-((32S,35S)-35-(4-aminobutyl)-1-azido-32-benzyl-30,33-dioxo-3,6,9,12,15,18,21,24,27-nonaoxa-31,34-diazahexatriacontan-36-amido)benzyl (3-(((S)-4,11-diethyl-4-hydroxy-3,14-dioxo-3,4,12,14-tetrahydro-1H-pyrano[3′,4′:6,7]indolizino[1,2-b]quinolin-9-yl)oxy)propyl)carbamate]	+++ (‘+++’ indicates 51-75% release)
CCc1c2c(nc3ccc(OCCCSSC(C)(C)CNC(=O)CCOCCOCCOCCOCCOCCOCCOCCOCCOCCOCCOCCN=[N+]=[N-])cc13)-c1cc3c(c(=O)n1C2)COC(=O)[C@]3(O)CC [Example 56, (S)-1-azido-N-(2-((3-((4,11-diethyl-4-hydroxy-3,14-dioxo-3,4,12,14-tetrahydro-1H-pyrano[3′,4′:6,7]indolizino[1,2-b]quinolin-9-yl)oxy)propyl)disulfanyl)-2-methylpropyl)-3,6,9,12,15,18,21,24,27,30,33-undecaoxahexatriacontan-36-amide]	+ (‘+’ indicates 5-25% release)

Test system: KB cell line
Assay: not given
Details: read-out: IC50 in KB cell line (++++); FA ligands per particle 12-22; linker-drug conjugates per particle 17-25
Procedure: The in vitro cytotoxicity of the NDCs disclosed herein were tested in cancer cells. The cancer cells were cultured in folic acid-free medium (RPMI1640, ThermoFisher, GIBCO) for at least one week before the study. Cells were plated in opaque 96-well plates at a density of 3×10^3 cells per well (total of […]) and allowed to attach overnight. The following day, cells were treated with NDC (FA-CDC) prepared using the linker-payload conjugate precursor compound 202 (Example 33), at a concentration range of 0-50 nM (0, 0.001, 0.005, 0.01, 0.05, 0.1, 0.5, 1, 5, 10, 50 nM) by adding […] of 10x stock FA-CDC Solution.
Cells were treated for a pre-defined exposure time (depending on the study design, e.g., 4-6 hours, or 7 days). In the case of short-exposure-time viability study, cancer cells in each wells were washed with […] PBS and refreshed with […] of cell medium. After washing, the plates were returned back to 37° C. incubator for 7 days before the viability assay. In the case of 7-day-exposure-time viability study, no additional washing step was performed. After 7 days, the cell viability was assessed using the CellTiter-Glo2.0 assay (Promega) according to manufacturer's instructions. Data for both viability and proliferation were plotted using Prism7 software (GraphPad).

SMILES	IC50 [nM]
CCc1c2c(nc3ccc(OCC(=O)N/N=C(\C)c4ccc(OCCCCOCCOCCOCCOCCOCCOCCN=[N+]=[N-])cc4)cc13)-c1cc3c(c(=O)n1C2)COC(=O)[C@]3(O)CC [Example 75, (S,E)-N′-(1-(4-((1-azido-3,6,9,12,15,18-hexaoxadocosan-22-yl)oxy)phenyl)ethylidene)-2-((4,11-diethyl-4-hydroxy-3,14-dioxo-3,4,12,14-tetrahydro-1H-pyrano[3′,4′:6,7]indolizino[1,2-b]quinolin-9-yl)oxy)acetohydrazide]	42.7
CC[C@@]1(O)C(=O)OCc2c1cc1n(c2=O)Cc2c-1nc1cc(F)c(C)c3c1c2[C@@H](NC(=O)OCc1c(F)cc(NC(=O)[C@H](CCCNC(N)=O)NC(=O)[C@@H](NC(=O)CCOCCOCCOCCOCCOCCOCCOCCOCCOCCN=[N+]=[N-])C(C)C)cc1F)CC3 (single isomer, unassigned) [Example 27, 4-((32s,35s)-1-azido-32-isopropyl-30,33-dioxo-35-(3-ureidopropyl)-3,6,9,12,15,18,21,24,27-nonaoxa-31,34-diazahexatriacontan-36-amido)-2,6-difluorobenzyl ((1s,9s)-9-ethyl-5-fluoro-9-hydroxy-4-methyl-10,13-dioxo-2,3,9,10,13,15-hexahydro-1H,12H-benzo[de]pyrano[3′,4′:6,7]indolizino[1,2-b]quinolin-1-yl)carbamate]	5.2
CCc1c2c(nc3ccc(OCCCNC(=O)OCc4ccc(NC(=O)[C@H](CCCCN)NC(=O)[C@H](Cc5ccccc5)NC(=O)CCOCCOCCOCCOCCOCCOCCOCCOCCOCCN=[N+]=[N-])cc4)cc13)-c1cc3c(c(=O)n1C2)COC(=O)[C@]3(O)CC [Example 28, 4-((32S,35S)-35-(4-aminobutyl)-1-azido-32-benzyl-30,33-dioxo-3,6,9,12,15,18,21,24,27-nonaoxa-31,34-diazahexatriacontan-36-amido)benzyl (3-(((S)-4,11-diethyl-4-hydroxy-3,14-dioxo-3,4,12,14-tetrahydro-1H-pyrano[3′,4′:6,7]indolizino[1,2-b]quinolin-9-yl)oxy)propyl)carbamate]	72.2
